Where a chain is given by its changes, count along the chain named.
How the values were obtained:
Conditions in all cases: at 10 µM
[1] = test system: T1, Receptor-type tyrosine-protein kinase FLT3 (Homo sapiens), P36888 [R834Q]; assay: (§1) Selectivity interaction (KinomeScan (DiscoverX)) EUB0000607a FLT3
T1 sequence (whole entry): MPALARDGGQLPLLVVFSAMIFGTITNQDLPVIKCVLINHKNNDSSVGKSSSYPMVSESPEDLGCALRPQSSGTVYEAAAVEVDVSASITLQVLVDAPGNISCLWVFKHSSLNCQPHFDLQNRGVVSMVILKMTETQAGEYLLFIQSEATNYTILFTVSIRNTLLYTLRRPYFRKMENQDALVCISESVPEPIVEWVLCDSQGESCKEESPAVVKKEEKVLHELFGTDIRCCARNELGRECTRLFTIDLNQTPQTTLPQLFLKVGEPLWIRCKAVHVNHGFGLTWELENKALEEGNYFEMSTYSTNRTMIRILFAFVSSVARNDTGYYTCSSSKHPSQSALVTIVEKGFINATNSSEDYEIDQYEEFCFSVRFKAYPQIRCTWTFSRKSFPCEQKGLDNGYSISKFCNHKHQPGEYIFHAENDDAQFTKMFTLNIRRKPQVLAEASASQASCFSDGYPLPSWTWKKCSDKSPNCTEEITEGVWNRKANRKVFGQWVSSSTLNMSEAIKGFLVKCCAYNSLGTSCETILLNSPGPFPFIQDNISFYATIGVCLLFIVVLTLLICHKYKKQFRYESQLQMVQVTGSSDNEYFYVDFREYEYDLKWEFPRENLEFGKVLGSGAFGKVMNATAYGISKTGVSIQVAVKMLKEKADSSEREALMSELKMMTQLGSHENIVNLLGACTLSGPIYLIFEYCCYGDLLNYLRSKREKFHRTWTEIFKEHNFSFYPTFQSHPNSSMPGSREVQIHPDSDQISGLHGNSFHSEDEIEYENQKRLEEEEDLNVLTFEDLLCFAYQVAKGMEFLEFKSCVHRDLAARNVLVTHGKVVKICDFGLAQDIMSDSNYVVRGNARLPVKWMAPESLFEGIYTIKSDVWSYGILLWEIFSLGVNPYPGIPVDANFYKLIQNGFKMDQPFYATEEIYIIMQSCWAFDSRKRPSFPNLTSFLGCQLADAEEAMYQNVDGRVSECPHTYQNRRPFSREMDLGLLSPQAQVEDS

[2] = test system: T2, Receptor-type tyrosine-protein kinase FLT3 (Homo sapiens), P36888 [D835Y]; assay: as §1
T2 sequence (whole entry): T1 sequence (whole entry) with Q834R, D835Y

[3] = test system: Receptor-type tyrosine-protein kinase FLT3 (Homo sapiens), P36888 [UNDEFINED MUTATION]; assay: as §1
[4] = test system: T3, Receptor-type tyrosine-protein kinase FLT3 (Homo sapiens), P36888 [D835H]; assay: as §1
T3 sequence (whole entry): T1 sequence (whole entry) with Q834R, D835H

Question: `CNC(=O)Nc1ccc(-c2nc(N3CC4CCC(C3)O4)c3cnn(C4CCC5(CC4)OCCO5)c3n2)cc1` was tested. Which % of control [1] did it give?
Answer: Its % of control is 79%.

Question: What about the % of control [2] of the same molecule?
Answer: Its % of control is 99%.

Question: And the % of control [3]?
Answer: Its % of control is 100%.

Question: And the % of control [4]?
Answer: Its % of control is 82%.
